Patent publication US9629892B2, “Treatment of penetrative injury to the brain” (NoNO Inc., priority 2010, dated 2017)
Entries after “also recorded” stand apart in the source; their conditions may differ.

How the values were obtained:
cerebral ischemia = conditions: reported in WO 2008/014917; cited from earlier work
[1] = molecular target: binding of NMDAR 2B to PSD95 (Homo sapiens, UniProt P78352); conditions: reported by Bach; cited from earlier work
PBBI rats [2] = assay: PBBI neuropathology: lesion volume in brain sections (H&E, TTC staining); conditions: for overall (total) lesion volume: Study 1, H&E stained sections, 7 days
Description: Male Sprague-Dawley rats (250-300 g) were subjected to a simulated ballistic wound to the right frontal hemisphere implemented by an inflatable penetrating probe. Three levels of injury severity were compared to control animals. Neurological and physiological outcome was assessed over a 3-day recovery period and brain tissue collected at 72 h for histopathological evaluation.
Tat-NR2B9c was administered i.v. in the jugular vein by an 8 minute infusion 30 minutes after inducing brain injury. Rats were sacrificed for histologic examination after 7 days. The dose of Tat-NR2B9c was Study I: 0.5 and 5.0 mg/ml/kg and Study II: 0.05, 0.275, and 0.5 mg/ml/kg. The rats were subject to the following treatments in Study I and II (sham=rat not subject to ballistic injury, PBBI=penetrative ballistic brain injury, veh=vehicle).
Study 1 evaluated two concentrations of Tat-NR2B9c (0.5 mg/kg and 5.0 mg/kg) (n=10 each group) with a survival period of 1 week. […] Behavioral and histological endpoints for both experiments included neurological assessments on neuroscore, balance beam, and rotarod tests, and lesion reconstruction on H&E stained sections.
As with the previous experiments, Tat-NR2B9c was administered as a slow bolus (8 minute) 30 minutes after PBBI.

PBBI rats [3] = assay: Morris Water Maze (MWM) task after PBBI; assay type: in vivo, rat; conditions: multiple dosing (four injections at 30 minutes, 24, 48 and 72 hours post-PBBI; 0.5 and 5 mg/kg); at 5 or more days
Description: FIGS. 6A-D show the effects of multiple dosing regimes on neuroscore, rotarod and MWM performance Animals were given four injections of Tat-NR2B9c post-PBBI at 30 minutes, 24 hours, 48 hours and 72 hours.

PBBI rats [4] = assay: Fixed-speed rotarod task after PBBI injury; assay type: in vivo, rat; conditions: for rotarod task recovery: Study 1, 0.50 mg/kg, 7 days post-PBBI
Description: (§1) Body weight was assessed at time 0 (baseline), 24, 72 h and 7 days post injury. Body temperature was assessed at time 0, 30 min (prior to treatment), 2, 24, 72 h, and 7 days post injury. Neuroscore was assessed at 0, 30 min (prior to treatment), 24, 72 h, 7 days post injury. Balance beam was assessed at time 0, 3, and 7 days post injury. Rotarod was assessed at time 0 and 7 days post injury.
FIGS. 3A and B show dose-response studies on a rotarod. Rats were trained to criteria on the fixed-speed version of the rotarod task prior to PBBI and tested at 7 days post-PBBI. […] Columns=means; error bars=SEM; *p<0.05 compared to PBBI

PBBI rats [5] = assay: Balance beam footfaults after PBBI injury; assay type: in vivo, rat; conditions: for footfaults per beam segment contralateral to site of injury / rats unable to cross the beam (assigned maximal footfault scores): 3 days post-PBBI; for rats unable to cross the beam: 7 days post-PBBI
PBBI rats [6] = assay: Body temperature after PBBI and dosing; assay type: in vivo, rat; conditions: approximately 90 minutes following PBBI (60 minutes following dosing)
PBBI rats [7] = assay: Neuroscore after PBBI injury; assay type: in vivo, rat; conditions: Study 1, 0.5 mg/kg i.v. 8 minute infusion 30 minutes after PBBI, 72 hours post-PBBI, vs PBBI/veh
Description: as §1
Columns=means; error bars=SEM; *p<0.05 compared to PBBI; †p<0.05 compared to 0.05 mg/kg Tat-NR2B9c; #p<0.05 compared to 0.275 mg/kg Tat-NR2B9c.

Sequence of binding of NMDAR 2B to PSD95 (P78352 whole entry): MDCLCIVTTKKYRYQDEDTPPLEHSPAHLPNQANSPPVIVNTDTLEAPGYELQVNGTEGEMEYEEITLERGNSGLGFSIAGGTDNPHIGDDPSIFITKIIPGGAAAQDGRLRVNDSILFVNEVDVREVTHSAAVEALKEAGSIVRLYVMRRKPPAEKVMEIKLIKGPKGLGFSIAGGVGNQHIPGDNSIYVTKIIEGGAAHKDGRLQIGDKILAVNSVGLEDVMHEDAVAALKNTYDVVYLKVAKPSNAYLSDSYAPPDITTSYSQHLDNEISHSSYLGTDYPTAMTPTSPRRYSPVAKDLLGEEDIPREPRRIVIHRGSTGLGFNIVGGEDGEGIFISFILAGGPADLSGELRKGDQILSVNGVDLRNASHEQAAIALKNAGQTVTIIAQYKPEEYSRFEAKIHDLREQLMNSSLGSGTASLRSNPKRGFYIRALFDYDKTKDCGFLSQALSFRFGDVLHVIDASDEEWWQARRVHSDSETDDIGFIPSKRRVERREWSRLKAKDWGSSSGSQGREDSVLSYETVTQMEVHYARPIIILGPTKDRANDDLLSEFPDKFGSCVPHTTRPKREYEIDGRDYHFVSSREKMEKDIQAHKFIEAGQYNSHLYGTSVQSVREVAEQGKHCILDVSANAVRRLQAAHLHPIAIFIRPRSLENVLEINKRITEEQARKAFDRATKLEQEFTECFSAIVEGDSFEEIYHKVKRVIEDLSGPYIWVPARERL

vdseissllurrqrrkkrgyin [retro-inverso analog of Tat-NR2B9c]
inhibition of cerebral ischemia (cerebral ischemia): effective inhibiting cerebral ischemia

IESDV (listed as Homo sapiens)
inhibition of binding of NMDAR 2B to PSD95 [1]: effective in inhibiting binding of NMDAR 2B to PSD95

YGRKKRRQRRRKLSSIESDV [Tat-NR2B9c]
total lesion volume (PBBI rats [2]; 20 mg/kg, TTC staining, p<0.05 vs PBBI/veh): 37±4 mm^3
reduction in total lesion volume (PBBI rats [2]; 20 mg/kg, TTC staining, vs PBBI/veh): 33%
overall (total) lesion volume (PBBI rats [2]; 0.5 mg/kg): did not significantly reduce overall lesion volume; also recorded: did not reach a significant neuroprotective effect on total lesion volume
overall (total) lesion volume (PBBI rats [2]; 5.0 mg/kg): did not significantly reduce overall lesion volume; also recorded: did not reach a significant neuroprotective effect on total lesion volume
MWM performance (PBBI rats [3]): possibly an improvement in the MWM performance
mean rotarod latencies across speeds relative to vehicle-treated PBBI rats (PBBI rats [4]; 20 mg/kg single slow bolus 30 minutes after PBBI): > 2 fold
mean rotarod latency across speeds (PBBI rats [4]; 20 mg/kg, p<0.05 vs PBBI/veh): 29 ± 3 s
rotarod performance (PBBI rats [4]; Study 1 (FIG. 3A), 0.5 mg/kg, summary statement): significantly improved
rotarod task recovery (PBBI rats [4]; higher speeds (20-25 rpm)): but not at higher speeds
rotarod task recovery (PBBI rats [4]; two lower speeds (10-15 rpm)): promoted significant recovery (to SHAM levels)
stability of lyophilized composition (lyophilized at 1-50 mg/ml in normal saline, with or without excipients): stable at −20 °C or at room temperature
period of stability (insignificant degradation or aggregation of the peptide) (peptide in normal saline at 10-30 mg/ml, stored frozen): two
footfaults per beam segment contralateral to site of injury (PBBI rats [5]; Study 1, 0.5 mg/kg, vs PBBI rats): made significantly fewer foot faults than the PBBI rats
footfaults per beam segment contralateral to site of injury (PBBI rats [5]; Study 1, 5.0 mg/kg, vs PBBI rats): made significantly fewer foot faults than the PBBI rats
rats unable to cross the beam (assigned maximal footfault scores) (PBBI rats [5]; Study 1, high-dose, of 10 animals per group): two
rats unable to cross the beam (PBBI rats [5]; Study 1, high-dose): one
rats unable to cross the beam (assigned maximal footfault scores) (PBBI rats [5]; Study 1, low-dose, of 10 animals per group): two
footfaults per beam segment contralateral to site of injury (PBBI rats [5]; Study 2, 0.275 mg/kg, narrowest beam segment, vs PBBI animals): made fewer footfaults than the PBBI animals
footfaults per beam segment contralateral to site of injury (PBBI rats [5]; Study 2, 0.50 mg/kg, narrowest beam segment, vs PBBI animals): made fewer footfaults than the PBBI animals
rats unable to cross the beam (assigned maximal footfault scores) (PBBI rats [5]; Study 2, high-dose, of 10-11 animals per group): one
rats unable to cross the beam (assigned maximal footfault scores) (PBBI rats [5]; Study 2, low-dose, of 10-11 animals per group): three
rats unable to cross the beam (PBBI rats [5]; Study 2, low-dose): one
rats unable to cross the beam (assigned maximal footfault scores) (PBBI rats [5]; Study 2, medium-dose, of 10-11 animals per group): one
hypothermic effect (measured in the rectum) (PBBI rats [6]): about 2 degrees C.
neuroscore (PBBI-induced neurological deficits) (PBBI rats [7]): significant, reduction in PBBI-induced neurological deficits; also recorded: significantly improved neuroscore
